Experimental data taken from patent US20060069132A1, “Azolecarboxamide herbicides” (priority 2004, published 2006).

Legend:
giant foxtail = experiment: Test C pre-/postemergence herbicide test; format: in vivo, Setaria faberi
Summary of the method: (§1)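 Greenhouse-grown plants were evaluated visually 12 to 14 days after treatment, with 100 meaning complete control and 0 no effect. Application was preemergence, or postemergence at 2 to 18 cm.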

bermudagrass = experiment: Test C pre-/postemergence herbicide test; format: in vivo, Cynodon dactylon
Summary of the method: as §1

velvetleaf [1] = experiment: Test C pre-/postemergence herbicide test; format: in vivo, Abutilon theophrasti
Summary of the method: as §1

soybean = experiment: Test C pre-/postemergence herbicide test; format: in vivo, Glycine max
Summary of the method: as §1

woolly cupgrass = experiment: Test C pre-/postemergence herbicide test; format: in vivo, Eriochloa villosa
Summary of the method: as §1

redroot pigweed = experiment: Test A pre-/postemergence herbicide test; format: in vivo, Amaranthus retroflexus; details: for Plant response rating, Pigweed: Postemergence; for Pigweed plant response rating: Preemergence
Summary of the method: (§2)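 Plants are held in greenhouse about ten days after treatment, then compared with untreated controls and scored 0 (no effect) to 100 (complete control). Preemergence dosing is a directed soil spray on sown sandy loam; postemergence dosing is spray to runoff at 2–10 cm height.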

morningglory = experiment: Test C pre-/postemergence herbicide test; format: in vivo, Ipomoea coccinea; set-up: key to Plant response rating, Morningglory: 0 = no effect, 100 = complete control
Summary of the method: as §1

yellow nutsedge = experiment: Test C pre-/postemergence herbicide test; format: in vivo, Cyperus esculentus
Summary of the method: as §1

corn = experiment: Test C pre-/postemergence herbicide test; format: in vivo, Zea mays
Summary of the method: as §1

cocklebur = experiment: Test C pre-/postemergence herbicide test; format: in vivo, Xanthium strumarium
Summary of the method: as §1

goosegrass = experiment: Test C pre-/postemergence herbicide test; format: in vivo, Eleusine indica
Summary of the method: as §1

velvetleaf [2] = experiment: Test A pre-/postemergence herbicide test; format: in vivo, Abutilon theophrasti; details: for Plant response rating, Velvetleaf: Postemergence; for Velvetleaf plant response rating: Preemergence
Summary of the method: as §2

kochia = experiment: Test C pre-/postemergence herbicide test; format: in vivo, Kochia scoparia
Summary of the method: as §1

barnyardgrass = experiment: Test C flooded paddy test; format: in vivo, Echinochloa crus-galli
Summary of the method: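 After a postemergence application at 1 to 4 leaves (plants 2–18 cm high), or at 2 leaves for barnyardgrass in flooded paddy, plants stayed in the greenhouse for 12 to 14 days. Damage was then judged visually relative to control plants, with 100 indicating complete control.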

[3] = 31 g ai/ha, preemergence, scale 0 to 100
[4] = 125 g ai/ha, scale 0-100, preemergence
[5] = Postemergence, 125 g ai/ha, scale 0 to 100, 0 no effect, 100 complete control
[6] = postemergence, 31 g ai/ha, scale 0 to 100
[7] = postemergence, 62 g ai/ha, scale 0 to 100
[8] = postemergence, 16 g ai/ha, scale 0 to 100
[9] = postemergence, 125 g ai/ha, scale 0 to 100
[10] = 500 g ai/ha, 0 to 100 scale, 0 no effect, 100 complete control
[11] = 2000 g ai/ha, 0 to 100 scale, 0 no effect, 100 complete control
[12] = 500 g ai/ha, visual rating, 0 to 100 scale (0 no effect, 100 complete control)
[13] = 62 g ai/ha, preemergence, scale 0 to 100
[14] = 250 g ai/ha, scale 0-100, preemergence
[15] = 500 g ai/ha, scale 0 to 100 (0 no effect, 100 complete control), visual, 12 to 14 days, preemergence

SMILES: C=Cn1nc(C(C)(C)C)cc1C(=O)Nc1cccc(C(=O)NCC)c1 [Compound 33]
- Plant response rating, Foxtail, Giant (giant foxtail; [3]): 10
- Plant response rating (0 = no effect, 100 = complete control), Foxtail, Giant (giant foxtail; 62 g ai/ha, preemergence): 20
- Plant response rating, Foxtail, Giant (giant foxtail; [4]): 60
- Plant response rating, Foxtail, Giant (giant foxtail; [5]): 30
- Plant response rating, Foxtail, Giant (giant foxtail; [6]): 30
- Plant response rating, Foxtail, Giant (giant foxtail; [7]): 30
- Plant response rating, Bermudagrass (bermudagrass; 16 g ai/ha, scale 0 to 100, 0 no effect, 100 complete control, last section of Table C (species set of preemergence test)): 30
- Plant response rating, Bermudagrass (bermudagrass; [3]): 50
- Plant response rating (0 = no effect, 100 = complete control), Bermudagrass (bermudagrass; 62 g ai/ha, preemergence): 80
- Plant response rating, Bermudagrass (bermudagrass; [4]): 90
- Plant response rating, Bermudagrass (bermudagrass; [5]): 30
- Plant response rating, Bermudagrass (bermudagrass; [8]): 0
- Plant response rating, Bermudagrass (bermudagrass; [6]): 20
- Plant response rating, Bermudagrass (bermudagrass; [7]): 20
- Plant response rating, Velvetleaf (velvetleaf [1]; [3]): 0
- Plant response rating, Velvetleaf (velvetleaf [1]; [6]): 60
- Plant response rating, Velvetleaf (velvetleaf [1]; [7]): 90
- Plant response rating, Soybean (soybean; [3]): 0
- Plant response rating (0 = no effect, 100 = complete control), Soybean (soybean; 62 g ai/ha, preemergence): 0
- Plant response rating, Soybean (soybean; [9]): 90
- Plant response rating, Soybean (soybean; [6]): 80
- Plant response rating, Soybean (soybean; [7]): 80
- Plant response rating, Cupgrass, Woolly (woolly cupgrass; [3]): 20
- Plant response rating (0 = no effect, 100 = complete control), Cupgrass, Woolly (woolly cupgrass; 62 g ai/ha, preemergence): 20
- Plant response rating, Cupgrass, Woolly (woolly cupgrass; [4]): 50
- Plant response rating, Cupgrass, Woolly (woolly cupgrass; [5]): 60
- Plant response rating, Cupgrass, Woolly (woolly cupgrass; [6]): 50
- Plant response rating, Cupgrass, Woolly (woolly cupgrass; [7]): 60
- Plant response rating, Pigweed (redroot pigweed; [10]): 85
- Plant response rating, Pigweed (redroot pigweed; [11]): 85
- Pigweed plant response rating (redroot pigweed; [12]): 100
- Pigweed plant response rating (redroot pigweed; [11]): 100
- Plant response rating, Morningglory (morningglory; [3]): 0
- Plant response rating (0 = no effect, 100 = complete control), Morningglory (morningglory; 62 g ai/ha, preemergence): 0
- Plant response rating, Morningglory (morningglory; [9]): 30
- Plant response rating, Morningglory (morningglory; [6]): 20
- Plant response rating, Morningglory (morningglory; [7]): 20
- Plant response rating, Nutsedge, Yellow (yellow nutsedge; 16 g ai/ha, scale 0 to 100, last section of Table C, preemergence): 0
- Plant response rating, Nutsedge, Yellow (yellow nutsedge; [3]): 0
- Plant response rating (0 = no effect, 100 = complete control), Nutsedge, Yellow (yellow nutsedge; 62 g ai/ha, preemergence): 0
- Plant response rating, Nutsedge, Yellow (yellow nutsedge; [9]): 10
- Plant response rating, Nutsedge, Yellow (yellow nutsedge; [6]): 0
- Plant response rating, Nutsedge, Yellow (yellow nutsedge; [7]): 0
- Plant response rating, Corn (corn; [3]): 0
- Plant response rating (0 = no effect, 100 = complete control), Corn (corn; 62 g ai/ha, preemergence): 0
- Plant response rating, Corn (corn; [4]): 0
- Plant response rating, Corn (corn; [5]): 40
- Plant response rating, Corn (corn; [6]): 40
- Plant response rating, Corn (corn; [7]): 40
- Plant response rating, Cocklebur (cocklebur; [3]): 0
- Plant response rating (0 = no effect, 100 = complete control), Cocklebur (cocklebur; 62 g ai/ha, preemergence): 0
- Plant response rating, Cocklebur (cocklebur; [4]): 30
- Plant response rating, Cocklebur (cocklebur; [5]): 70
- Plant response rating, Cocklebur (cocklebur; [8]): 20
- Plant response rating, Cocklebur (cocklebur; [7]): 50
- Plant response rating, Goosegrass (goosegrass; [3]): 20
- Plant response rating (0 = no effect, 100 = complete control), Goosegrass (goosegrass; 62 g ai/ha, preemergence): 60
- Plant response rating, Goosegrass (goosegrass; [4]): 90
- Plant response rating, Goosegrass (goosegrass; [5]): 40
- Plant response rating, Goosegrass (goosegrass; [6]): 40
- Plant response rating, Goosegrass (goosegrass; [7]): 40
- Plant response rating, Velvetleaf (velvetleaf [2]; [10]): 30
- Plant response rating, Velvetleaf (velvetleaf [2]; [11]): 40
- Velvetleaf plant response rating (velvetleaf [2]; [12]): 20
- Velvetleaf plant response rating (velvetleaf [2]; [11]): 80
- Plant response rating, Kochia (kochia; [3]): 80
- Plant response rating (0 = no effect, 100 = complete control), Kochia (kochia; 62 g ai/ha, preemergence): 100
- Plant response rating, Kochia (kochia; [4]): 100
- Plant response rating, Kochia (kochia; [5]): 90
- Plant response rating, Kochia (kochia; [6]): 60
- Plant response rating, Kochia (kochia; [7]): 90

SMILES: CCc1nn(C(C)(C)C)nc1C(=S)Nc1cccc(C(=S)N(C)C)c1 [Compound 396]
- Plant response rating, Foxtail, Giant (giant foxtail; [13]): 95
- Plant response rating (0 = no effect, 100 = complete control), Foxtail, Giant (giant foxtail; 125 g ai/ha, preemergence): 100
- Plant response rating, Foxtail, Giant (giant foxtail; [14]): 100
- Plant response rating, Foxtail, Giant (giant foxtail; [15]): 100
- Barnyardgrass plant response rating (barnyardgrass; 62 g ai/ha, scale 0 to 100 (0 no effect, 100 complete control)): 65
- Barnyardgrass plant response rating (barnyardgrass; 125 g ai/ha, scale 0 to 100 (0 no effect, 100 complete control)): 75
- Barnyardgrass plant response rating (barnyardgrass; 250 g ai/ha, scale of 0 to 100, 0 is no effect, 100 is complete control): 75
- Plant response rating, Barnyardgrass (barnyardgrass; 500 g ai/ha, visual rating after 12 to 14 days, scale 0 to 100 (0 no effect, 100 complete control)): 80
- Plant response rating, Bermudagrass (bermudagrass; 62 g ai/ha, preemergence, scale 0 to 100, 0 no effect, 100 complete control): 95
- Plant response rating (0 = no effect, 100 = complete control), Bermudagrass (bermudagrass; 125 g ai/ha, preemergence): 100
- Plant response rating, Bermudagrass (bermudagrass; [14]): 100
- Plant response rating, Bermudagrass (bermudagrass; [15]): 100
- Plant response rating, Velvetleaf (velvetleaf [1]; [13]): 0
- Plant response rating (0 = no effect, 100 = complete control), Velvetleaf (velvetleaf [1]; 125 g ai/ha, preemergence): 45
- Plant response rating, Velvetleaf (velvetleaf [1]; [14]): 100
- Plant response rating, Velvetleaf (velvetleaf [1]; [15]): 100
- Plant response rating, Soybean (soybean; [13]): 0
- Plant response rating (0 = no effect, 100 = complete control), Soybean (soybean; 125 g ai/ha, preemergence): 75
- Plant response rating, Soybean (soybean; [14]): 100
- Plant response rating, Soybean (soybean; [15]): 100
- Plant response rating, Cupgrass, Woolly (woolly cupgrass; [13]): 60
- Plant response rating (0 = no effect, 100 = complete control), Cupgrass, Woolly (woolly cupgrass; 125 g ai/ha, preemergence): 90
- Plant response rating, Cupgrass, Woolly (woolly cupgrass; [14]): 100
- Plant response rating, Cupgrass, Woolly (woolly cupgrass; [15]): 100
- Plant response rating, Morningglory (morningglory; [13]): 0
- Plant response rating (0 = no effect, 100 = complete control), Morningglory (morningglory; 125 g ai/ha, preemergence): 0
- Plant response rating, Morningglory (morningglory; [14]): 25
- Plant response rating, Morningglory (morningglory; [15]): 70
- Plant response rating, Nutsedge, Yellow (yellow nutsedge; [13]): 0
- Plant response rating (0 = no effect, 100 = complete control), Nutsedge, Yellow (yellow nutsedge; 125 g ai/ha, preemergence): 25
- Plant response rating, Nutsedge, Yellow (yellow nutsedge; [14]): 45
- Plant response rating, Nutsedge, Yellow (yellow nutsedge; [15]): 80
- Plant response rating, Corn (corn; [13]): 0
- Plant response rating (0 = no effect, 100 = complete control), Corn (corn; 125 g ai/ha, preemergence): 30
- Plant response rating, Corn (corn; [14]): 60
- Plant response rating, Corn (corn; [15]): 80
- Plant response rating, Cocklebur (cocklebur; [13]): 0
- Plant response rating (0 = no effect, 100 = complete control), Cocklebur (cocklebur; 125 g ai/ha, preemergence): 0
- Plant response rating, Cocklebur (cocklebur; [14]): 0
- Plant response rating, Cocklebur (cocklebur; [15]): 0
- Plant response rating, Goosegrass (goosegrass; [13]): 95
- Plant response rating (0 = no effect, 100 = complete control), Goosegrass (goosegrass; 125 g ai/ha, preemergence): 100
- Plant response rating, Goosegrass (goosegrass; [14]): 100
- Plant response rating, Goosegrass (goosegrass; [15]): 100
- Plant response rating, Kochia (kochia; [13]): 0
- Plant response rating (0 = no effect, 100 = complete control), Kochia (kochia; 125 g ai/ha, preemergence): 45
- Plant response rating, Kochia (kochia; [14]): 100
- Plant response rating, Kochia (kochia; [15]): 100
